Data from paper PMC11779965 (Nature Communications, 2025).

Experiments:
[1] = clogP calculated with ChemAxon Marvin Sketch; conditions: 78 vs Sulfadiazine
[2] = system: female CD-1 mice; experiment: Catalepsy bar test; format: in vivo; conditions: 200 mg/kg IP, 90 min after dosing
[3] = physchem; conditions: pH 7.4, […]

Structure (SMILES) | Catalepsy score compared to Vehicle-treated group (in words) [2] | also measured
CS(=O)(=O)c1cnc(NS(=O)(=O)c2ccc(N)cc2)nc1.Cl [Compound 78] |  | Decrease of lipophilicity on replacement of H with MeSO2 [1]: ca. 1.2 clogP units
CCN(CC)CCNC(=O)c1cc(S(C)(=O)=O)cnc1OC [Compound 79] | remained at the level of the Control Vehicle-treated group | 
Nc1ccc(S(=O)(=O)Nc2ncccn2)cc1 [Sulfadiazine] |  | logD [3]: -0.8
CCN(CC)CCNC(=O)c1cc(S(C)(=O)=O)ccc1OC [Tiapride] | significantly higher | 
